We go through five compounds from article PMC11728000, “Antitumor Activity and Multi-Target Mechanism of Phenolic Schiff Bases Bearing Methanesulfonamide Fragments: Cell Cycle Analysis and a Molecular Modeling Study” (International Journal of Molecular Sciences, 2024).

Series [1] has as its system RPMI-8226. Also noted: method as in https://dtp.cancer.gov/dtpstandard/dwindex/index.jsp. To be noted: PRMI-8226; ref https://dtp.cancer.gov/dtpstandard/dwindex/index.jsp; cited from earlier work.
Series [2] has as its system SK-MEL-5. Also noted: method as in https://dtp.cancer.gov/dtpstandard/dwindex/index.jsp. As to conditions: ref https://dtp.cancer.gov/dtpstandard/dwindex/index.jsp; cited from earlier work.
Series [3] relates to CCRF-CEM. Put plainly: NCI anticancer screening (SRB), Leukemia subpanel. Format: cell-based, human. As to conditions: for GI%: 10.0 µM in one dose.
Series [4] deals with MOLT-4. The series can be described thus: NCI anticancer screening (SRB), Leukemia subpanel. The class given is cell-based, human. To be noted: for GI%: 10.0 µM in one dose.
Series [5] has as its system A549/ATCC. The series can be described thus: NCI anticancer screening (SRB), Non-Small Cell Lung Cancer subpanel. Format: cell-based, human. To be noted: for GI%: 10.0 µM in one dose.
For series [6], the system named is HOP-92. Described as above. To be noted: for GI%: 10.0 µM in one dose. The class given is cell-based, human.
Series [7] deals with NCI-H460. Described as above. Format: cell-based, human. To be noted: for GI%: 10.0 µM in one dose.
The test system of series [8] is KM12. The series can be described thus: NCI anticancer screening (SRB), Colon Cancer subpanel. Format: cell-based, human. To be noted: for GI%: 10.0 µM in one dose.
The test system of series [9] is SW-620. Described as above. The class given is cell-based, human. As to conditions: for GI%: 10.0 µM in one dose.
Series [10] concerns SF-268. The series can be described thus: NCI anticancer screening (SRB), CNS Cancer subpanel. To be noted: for GI%: 10.0 µM in one dose. The class given is cell-based, human.
In series [11] the test system is SF-295. The series is described as above. The class given is cell-based, human. As to conditions: for GI%: 10.0 µM in one dose.
Series [12] has as its system SNB-19. Described as above. Format: cell-based, human. As to conditions: for GI%: 10.0 µM in one dose.
For series [13], the system named is M14. The series can be described thus: NCI anticancer screening (SRB), Melanoma subpanel. To be noted: for GI%: 10.0 µM in one dose. Format: cell-based, human.
Series [14] deals with MDA-MB-435. The series can be described thus: NCI anticancer screening (SRB), Melanoma subpanel. The class given is cell-based, human. As to conditions: for GI%: 10.0 µM in one dose.
In series [15] the test system is SK-MEL-2. The series can be described thus: NCI anticancer screening (SRB), Melanoma subpanel. Format: cell-based, human. To be noted: for GI%: 10.0 µM in one dose.
The test system of series [16] is SK-MEL-28. Put plainly: NCI anticancer screening (SRB), Melanoma subpanel. The class given is cell-based, human. As to conditions: for GI%: 10.0 µM in one dose.
In series [17] the test system is OVCAR-8. Put plainly: NCI anticancer screening (SRB), Ovarian Cancer subpanel. The class given is cell-based, human. As to conditions: for GI%: 10.0 µM in one dose.
Series [18] relates to NCI/ADR-RES. The description is as above. The class given is cell-based, human. To be noted: for GI%: 10.0 µM in one dose.
Series [19] relates to A498. Put plainly: NCI anticancer screening (SRB), Renal Cancer subpanel. Format: cell-based, human. To be noted: for GI%: 10.0 µM in one dose.
In series [20] the test system is TK-10. The series is described as above. The class given is cell-based, human. To be noted: for GI%: 10.0 µM in one dose.
The subject of series [21] is PC-3. The series can be described thus: NCI anticancer screening (SRB), Prostate Cancer subpanel. The class given is cell-based, human. To be noted: for GI%: 10.0 µM in one dose.
The subject of series [22] is MCF-7. Put plainly: NCI anticancer screening (SRB), Breast Cancer subpanel. Format: cell-based, human. As to conditions: for GI%: 10.0 µM in one dose.
Series [23] can be described thus: in vitro. To be noted: human. As to the method:
the measured protein at the end of the drug treatment as compared to that at the beginning) indicating a net loss of cells following treatment was calculated from [(Ti − Tz)/Tz] […] = − 50.
Values were calculated for each of these three parameters if the activity level was reached; however, if the effect was not reached or exceeded, that parameter's value was expressed as more or less than the maximum or minimum concentration tested. The log GI50, log TGI, and log LC50 were then determined and defined as the mean of the logs of the individual GI50, TGI, and LC50 values. The lowest values are obtained with the most sensitive cell lines. The compound with log GI50 values −4 and <−4 was declared active.
2. In vitro cytotoxic activity towards normal fibroblast (WI-38) cells Cell Lines were obtained from the American Type Culture Collection; cells were cultured using DMEM (Invitrogen/Life Technologies) supplemented with 10% FBS (Hyclone), ten ug/ml of insulin (Sigma), and 1% penicillin–streptomycin. Cultures were removed from the incubator into a laminar flow hood, reconstituted with 3 mL of balanced salt solution without phenol red and serum, and then added to an amount equal to 10% of the culture medium volume. Cultures returned to the incubator for 2–4 h. After the incubation period, the resulting formazan crystals dissolved […]
medium volume. The absorbance was measured Spectrophotometrically at a wavelength of 570 […]
3. In vitro cyclooxygenase (COX-2) inhibition assay
The ability of the test compounds to inhibit COX-2 was determined using an enzyme immunoassay […]
manufacturer’s instructions.

The test system of series [24] is Bax. Put plainly: Apoptotic markers assay, Bax expression in MCF-7 cells. Format: cell-based, human. As to conditions: MCF-7 cells treated at IC50 concentrations; vs untreated control = 1. As to the method: (§1) We measured the apoptosis promoter Bax levels, the apoptosis inhibitor Bcl−2, and the apoptosis coordination enzymes caspase-8 and caspase-9 [32].
(§2) The apoptotic marker method was carried out using the reported procedure using MCF-7, the cancer cell line (Supplementary Materials). […]
(cells are Plated […]
in a density of 1.2-1.8 X 10,000 cells/well in a volume of 100 µL complete growth medium + 100 µL of the tested compound per well in a 96-well plate for 24/48 h before the enzyme assay).
8. Evaluation of Bax and Bcl-2 expressions m RNA isolation was carried out using an RNeasy extraction kit, up to 1 X 107 cells. They were disrupted in Buffer RLT and homogenized. Ethanol was added to the lysate to promote the selective binding of RNA to the RNeasy membrane. Then, the sample was applied to the RNeasy […]
Mini spin column. Total RNA bound to the membrane. High-quality RNA was eluted using […]
(1 picture or pasted object on this page, not shown here)

Series [25] has as its system caspase-8. The series can be described thus: Apoptotic markers assay, caspase-8 level in MCF-7 cells. The class given is cell-based, human. To be noted: MCF-7 cells treated at IC50 concentrations; vs untreated control = 1. As to the method: as §1, §2
(§3) 7. Caspase-8 and 9 activation assay
(§4) A breast carcinoma (MCF-7) cell line was obtained from ATCC. […]
(§5) allowed cells to grow at 37 °C, stimulated with the compounds to be tested for caspase-8 or caspase-9 and lysed with Cell Extraction Buffer. Standard Diluent Buffer was used to dilute the lysate over the range of the assay and measure human active caspase-8 or caspase-9 content. (cells are Plated in a density of 1.2-1.8 X 10,000 cells/well in a volume of 100 µL complete growth medium + 100 µL of the tested compound per well in a 96-well plate for 24/48 h before the enzyme assay).
(§6) 8. Evaluation of Bax and Bcl-2 expressions m RNA isolation was carried out using an RNeasy extraction kit, up to 1 X 107 cells. They were disrupted in Buffer RLT and homogenized. Ethanol was added to the lysate to promote the selective binding of RNA to the RNeasy membrane. Then, the sample was applied to the RNeasy

Series [26] concerns caspase-9. Put plainly: Apoptotic markers assay, caspase-9 level in MCF-7 cells. The class given is cell-based, human. To be noted: MCF-7 cells treated at IC50 concentrations; vs untreated control = 1. As to the method: as §1, §2, §3, §4, §5, §6
Setting [27] is: Homo sapiens, five concentrations.

“And” between values parts separate entries of the source, which are not always exact repeats. Equal entries are not always repeated.

The GI50 is the concentration that inhibits growth by half. Consider `C#Cc1cccc(Nc2ncnc3cc(OCCOC)c(OCCOC)cc23)c1` [Erlotinib, erlotinib], for which the GI50 in [1] was 25100 nM.
`COc1cc2ncnc(Nc3ccc(F)c(Cl)c3)c2cc1OCCCN1CCOCC1` [Gefitinib, gefitinib]: the 50% growth inhibitory concentration (GI50) in series [2] was 3160 nM.
Regarding `Cc1ccc(-c2cc(C(F)(F)F)nn2-c2ccc(S(N)(=O)=O)cc2)cc1` [Celecoxib, celecoxib], the 50% growth inhibitory concentration (GI50) in series [1] is 3980 nM; in series [2], 15800 nM.
Broadly, the IC50 is the concentration needed to halve the response being measured. As to `CCN(CC)c1ccc(C=NNC(=O)c2ccc(NS(C)(=O)=O)cc2)c(O)c1` [Compound 8], the GI% stood at 94% in series [3]; 90% in series [4]; 88% in series [5]; 61% in series [6]; 97% in [7]; 85% in series [8]. The GI% in [9] turned out to be 63%; in [10] it was 77%; in series [11], 90%; in series [12] it was 65%; in series [13] it was 100%; in [14], 71%. Further, the GI% in [15] is given as 59%; in [16] it was 77%; in series [17] it was 88%; in series [18], 63%; in series [19], 81%; in [20], 52%. The GI% is on record as 68% in series [21] and 94% in series [22]. For the same compound, the GI50 is 177 nM in series [3] (setting [27]); 372 nM in series [4] (setting [27]); 1340 nM in series [5] (setting [27]); 443 nM in [6] (setting [27]); 475 nM in series [7] (setting [27]); 509 nM in series [8] (setting [27]). The concentration for 50% growth inhibition (GI50) in series [9] (setting [27]) stood at 471 nM; in [10] (setting [27]), 252 nM; in series [11] (setting [27]) it was 517 nM; in series [12] (setting [27]), 831 nM; in [13] (setting [27]), 351 nM; in [14] (setting [27]), 558 nM. Moreover, the concentration for 50% growth inhibition (GI50) in [15] (setting [27]) turned out to be 749 nM; in series [16] (setting [27]) it was 381 nM; in series [17] (setting [27]) it was 312 nM; in series [18] (setting [27]), 2580 nM; in series [19] (setting [27]) it was 2230 nM; in [20] (setting [27]) it was 1050 nM. Moreover, the 50% growth inhibitory concentration (GI50) in series [21] (setting [27]) amounted to 368 nM; in series [22] (Homo sapiens, MCF7, five concentrations) it was 416 nM. In series [23], this compound returned a concentration for half-maximal inhibition (IC50) of 82100 nM. In series [24], the “Bax, Gene Expression (Fold Change)” value came to 5.456 fold change. In addition, the “Casp8, Gene Expression (Fold Change)” value in series [25] is 6.456 fold change. The “Casp9, Gene Expression (Fold Change)” value in [26] worked out at 3.776 fold change.
As for `CS(=O)(=O)Nc1ccc(C(=O)NN=Cc2ccccc2O)cc1` [Compound 7], the GI% in series [3] stood at 63%; in series [4], 50%; in series [5], 11%; in series [6] it was 44%; in [7], 21%; in series [8], 35%. In addition, the GI% in series [9] amounted to 35%; in series [10], 48%; in [11], 35%; in series [12] it was 32%; in series [13], 44%; in series [14], 24%. Moreover, the GI% amounted to 22% in series [15]; 37% in series [16]; 32% in series [17]; 41% in [18]; 16% in series [19]; 21% in series [20]. For the same compound, the GI% in series [21] worked out at 38%; in [22], 21%. This compound showed an IC50 in series [23] of 111000 nM. In addition, the “Bax, Gene Expression (Fold Change)” value in series [24] was determined as 5.02 fold change. In addition, the “Casp8, Gene Expression (Fold Change)” value in [25] stood at 5.171 fold change. Moreover, the “Casp9, Gene Expression (Fold Change)” value in series [26] was 2.99 fold change and 2.990 fold change.
